Source: US20200113816A1, “REACTIONS TRIGGERED BY COOLING-INDUCED GEL-TO-SOL TRANSITION OF THERMORESPONSIVE POLYMERS” (Vanderbilt University, priority 2018, published 2020)

System: Sprague-Dawley rats
Test: Neurobehavioral testing of nerve block, cooling-triggered local anesthesia
Format: in vivo
Settings: injected, 15 mg/mL in sterile saline
Excerpt: Nile Red- or bupivacaine-loaded gels are implanted in adult Sprague-Dawley rats alongside a wireless temperature probe. Stability are characterized using dye-loaded formulations, with animals imaged daily to determine the extent to which the dye leaks from the gelled implant; quantitative data are derived from depletion of the Nile Red fluorescence signal. To characterize release, rats implanted with dye-loaded formulations are subjected to a cooling stimulus (ice applied to the skin while tissue temperature is remotely monitored), and subsequently imaged to determine the extent to which cooling triggers release of the sequestered compound in vivo as observed by decrease in the depot fluorescence intensity. Multiple cycles of cooling are performed (with a 24-hour recovery period between cycles) until no significant change in the fluorescence signal from the depot is observed. […] The difference between the duration of nerve blocks due to injection of bupivacaine solution and the duration of blocks caused by cooling-triggered release from an implanted device is determined. To investigate tissue response to the implanted devices, after the animals are sacrificed the tissue surrounding the sciatic nerve is removed, processed for histology (H&E staining), and analyzed via optical microscopy.

CCCCN1CCCCC1C(=O)Nc1c(C)cccc1C (stereo not shown) [bupivacaine]
baseline nerve block duration: ~200 min
